Results on two molecules are retold here after patent US12029738B2, “Antiproliferative compounds and methods of use thereof” (Celgene Corporation, priority 2017, dated 2024).

One assay relates to OPM2. Briefly: PBMC and MM cell treatment assay (single culture vs co-culture). The class given is cell-based. Particulars: Homo sapiens, OPM-2, OPM2, read-out: Immune-mediated Cell Killing IC50. As for the experimental part: PBMC and MM Cell Treatment Assay Procedure. Ninety-six-well dishes were pre-coated with anti-CD3 antibody (OKT3, 3 μg/mL) and incubated at 4° C. overnight before the start of the experiment. Frozen PBMC donor cells were thawed at 37° C. for 2 minutes in RPMI medium with 10% FBS and cell counts and viability were measured on the Vi-CELL analyzer. Peripheral blood mononuclear cells were washed and diluted to 1×10^6 cells/mL and dispensed into the compound-treated plates in a total volume of 200 μL. Cells were incubated with compounds for 2 h before being transferred onto anti-CD3-coated plates and incubated for an additional 72 h. At the same time, MM cell lines (NCI-H929, H929-1051, OPM2, OPM2-P10) were diluted to a final concentration of 0.1×10^6 cells/mL and labeled with CellTrace CFSE according to manufacturer's instructions. Multiple myeloma cell lines were then dispensed into compound-treated plates at a total volume of 200 μL and incubated for 72 h. After 72 h, the PBMCs and MM cells were counted and transferred into a U-bottom 96-well plate at a final T:E ratio of 1:5. After 24 h coculture, specific target cell lysis by PBMC cells was measured using Annexin V-AF647 and 7-AAD according to manufacturer's instructions and samples were run on the Attune NxT Cytometer.
Because preincubation of immune cells with Compound 2 enhanced the targeting and lysing of MM cells, the effect of preincubation of MM cells with Compound 2 on their susceptibility to immune-mediated killing was also explored (FIG. 16A, FIG. 16B, FIG. 16C, and FIG. 16D, Table 12). Four MM cell lines and anti-CD3 antibody-activated PBMCs were separately preincubated with Compound 2, lenalidomide, or pomalidomide for 72 h. When anti-CD3 antibody-activated PBMCs and MM lines were both pretreated with Compound 2, lenalidomide, or pomalidomide, followed by co-culture, the effects on the PBMC-induced MM cell lysis were enhanced both in the potency and magnitude of the killing response. […] For the pomalidomide-resistant OPM2-P10 cell line, Compound 2 treatment of the MM cells enhanced the immune-mediated killing by ˜3000-fold (Table 12).

For assay [1], the system named is lenalidomide-resistant NCI-H929 (H929-1051) multiple myeloma/plasmacytoma tumors. Briefly: H929-1051 xenograft, Compound 2 alone and with bortezomib. The class given is in vivo, mouse.
The subject of assay [2] is lenalidomide-resistant multiple myeloma cells (H929-1051). Briefly: Apoptosis induction with dexamethasone combinations (Caspase-Glo 3/7, 72 h). In kind it is cell-based, human. Here is the method:
Methods: Dexamethasone was assessed for its ability to induce apoptosis as a single agent or in combination with Compound 2, pomalidomide, or lenalidomide. Induction of apoptosis was measured using Caspase-Glo in lenalidomide-resistant multiple myeloma cells (H929-1051). Dexamethasone was dispensed at 20 concentrations, using an acoustic dispenser. The test articles were added as single concentrations onto the dexamethasone wells with a Hewlett-Packard D300 Digital Dispenser. The final concentrations of compounds for the assay were: dexamethasone (0.8 μM to 0.00002 μM), lenalidomide (1 μM), pomalidomide (0.1 μM), and Compound 2 (0.001, 0.01, or 0.1 μM). Cells were dispensed into the assay plates with a Multidrop dispenser and duplicate plates were made for the assay. The apoptosis read was taken at 72 h post-compound treatment using a Caspase-Glo 3/7 and CellTiter-Glo Assays. The Caspase-Glo 3/7 luminescence was normalized to the CellTiter-Glo luminescence to account for differences in cell number. The fold change of the treated sample was calculated as follows: normalized caspase of treated sample/average of normalized DMSO control.

The next assay concerns JJN-3. Briefly: Flow cytometry proliferation/apoptosis assay (120 h). In kind it is cell-based, human. As for the experimental part:
Methods. […] Using 5 mM stocks, compounds were pre-spotted into the appropriate wells of 96-well plates using a Hewlett-Packard D300 Digital Dispenser. Cells were added to 96-well plates using a Multidrop Combi Reagent Dispenser. After 5 days of treatment, flow cytometric analysis was used to determine the number of cells that were alive, dead, or apoptotic. After 5 days of treatment, cells were incubated with annexin V to stain exposed phosphatidylserine, an apoptotic cell-surface marker, and the vital dye 7-AAD, which is excluded from cells with intact cell membranes, and analyzed by flow cytometry (Attune®, Thermo Fisher). Analysis was then performed to determine the number of live cells (annexin V and 7-AAD double negative staining cells) and the percentage of apoptotic cells (annexin V positive cells) for each condition, relative to the DMSO control treated, was calculated. All described values were normalized to DMSO-only treated cells. […] The live cell count for every concentration was normalized to the DMSO control (considered as 100%) in Microsoft Excel to generate the proliferation curves. […] Similarly, for apoptosis analysis, the percentage of drug-induced apoptosis was calculated for all doses by combining both “early” (annexin V positive and 7-AAD negative) and “late” apoptosis (annexin V and 7-AAD positive) values and subtracting background values (cell treated with vehicle control DMSO). […] The area under the dose-response curve (AUC) was calculated since it integrates potency and efficacy of the drugs to represent apoptosis into a single parameter.
Each data point represents 2 independent experiments with at least two samples in each experiment.

The mark [3] stands for this setting: JJN-3 (DSMZ); 120 h; scale 0-10000.

Where two headings read alike, the source gives them in different places.

Consider `N#Cc1ccc(N2CCN(Cc3ccc(COc4cccc5c4CN([C@H]4CCC(=O)NC4=O)C5=O)cc3)CC2)c(F)c1` [Compound 2, (S)-4-(4-(4-(((2-(2,6-dioxopiperidin-3-yl)-1-oxoisoindolin-4-yl)oxy)methyl)benzyl)piperazin-1-yl)-3-fluorobenzonitrile], for which the concentration for half-maximal inhibition (IC50) (commonly the concentration at which inhibition is half-maximal) came out at 0.0936 nM with OPM2 (Co-culture with PBMCs); 0.3 nM in the assay with OPM2 (Single culture); 0.1 nM with JJN-3 (Homo sapiens, JJN-3, 120 h, read-out: Antiproliferative Activity (Flow Cytometry) IC50). The “tumor volume reduction (TVR)” value in assay [1] (Compound 2 1 mg/kg qd×3 in combination with bortezomib 1 mg/kg single dose, day 50) was 98%. Further, in assay [1] (Compound 2 1 mg/kg with second agent 1 mg/kg), the “combination antitumor activity (fractional product method)” value is given as “synergistic”. Further, in assay [1] (combination of Compound 2 and bortezomib, by day 53), the “animals that became tumor free and remained tumor free” value was 7 out of 9. Moreover, in assay [1] (single agent Compound 2 1 mg/kg qd×3 (days 31-33), day 50), the “tumor growth inhibition / tumor volume reduction (TVR)” value turned out to be 44%. Also, the “day by which tumors reached approximately 2000 mm^3” value in assay [1] (single agent, 1 mg/kg) stood at 58 days. Further, the “combination effect with dexamethasone on cell viability and apoptosis” value in assay [2] (Compound 2 0.001, 0.01, 0.1 μM) was “synergized with dexamethasone”. Further, the “shift of the onset of dexamethasone activity in the presence of Compound 2” value in assay [2] (caspase-3 induction) is recorded as 1 log. Further, in the assay on JJN-3 (setting [3]), the “induced apoptosis AUC (area under the dose response curve)” value amounted to 1125.

As for `Nc1cccc2c1C(=O)N(C1CCC(=O)NC1=O)C2=O` (stereo not drawn) [Pomalidomide, pomalidomide], the half-maximal inhibitory concentration (IC50) with OPM2 (Co-culture with PBMCs) worked out at 168 nM; in the assay on OPM2 (Single culture), 627 nM; in the assay with JJN-3 (Homo sapiens; JJN-3; 120 h; read-out: Antiproliferative Activity (Flow Cytometry) IC50) it was 366 nM. Moreover, the “induced apoptosis AUC (area under the dose response curve)” value in the assay on JJN-3 (setting [3]) amounted to 199.1.
